# According to patent EP0956028B1, “[…] INHIBITION OF […] GROWTH” (Purdue Research Foundation, priority 1996, dated 1998):
# System: A549 human lung carcinoma cells
# Assay: Tumor cell proliferation (cell count), indirect co-culture with submucosal tissue membrane
# Assay type: cell-based
# Experimental: Carcinoma ceil lines including A549 (human lung adenocarcinoma), MCF-7 (human breast carcinoma) and human colorectal carcinoma cell lines were obtained from American Type Cell Culture (ATCC). Cell cultures were routinely performed at 37°C in an incubator supplemented with 5% CO2 and 95% air. Media used were F-12 pius 10° o FBS (fetal bovine serum) (Gibco BRL) for the A549 cells and RPMI plus 10% FBS (Gibco BRL) for both the MCF-7 and colonic carcinoma cell lines. The inhibition of tumor cell growth on several different forms of submucosal tissue including PA-ST (submucosal tissue sterilized in peracetic acid), Native submucosal tissue (no further treatment after dissection), Gamma irradiated submucosal tissue and solubilized submucosal tissue was assessed.
# Cancer cells were cultured in the presence of various forms of intestinal submucosal tissue at 37°C in an incubator supplemented with 5% CO2 and 95% air using the following procedures: • 1. Direct Contact: Intestinal submucosal tissue and the cultured cells physically contact one another. • 2. Indirect Contact: Intestinal submucosal tissue and the cultured cells are separated by a stainless steel mesh. • 3. Solubilized intestinal submucosal tissue added to the culture media. • 4. Cells are cultured on solubilized intestinal submucosa coated culture plate. The coating was applied by placing 1 ml of solubilized intestinal submucosal tissue in a 35mm culture plate, heating at 37°C for 2 hours, removing the excess intestinal submucosal tissue fluid by aspiration and washing the coated plates once with culture media.
# • 1. […]
# Tumor cells were plated at a cell density of approximately 5x10^5 cells/dish of 60 mm tissue culture dishes and grown until they reached about 50% confluence. Cell cultures were then subjected to the following treatments in triplicates: 1) control, cells grown in media only; 2) addition of different quantities of solubilized submucosal tissue (200-800 µl); 3) co-culture with submucosal tissue membranes of different sizes (indirect co-culture). […]
structure (smiles),measurement,setting,value
"CC(=O)OO [Peracidic Acid, peracetic acid]",Cell Count (x10^5) (day 2 of treatment),"100 µl of Peracidic Acid, A549",18.81 ± 2.59 x10^5
same,% of Control,"100 µl of Peracidic Acid, A549 cell count, day 2 of treatment",97%
same,inhibitory effect on cell proliferation,added exogenously to tumor cells,no significant inhibitory effect
